Reference: US12599604B2, “Application of JAK inhibitor in kidney disease” (JIANGSU HENGRUI PHARMACEUTICALS CO., LTD., priority 2020, dated 2026)

Columns and labels:
[1] = system: LPS-induced acute kidney injury mouse models; assay: Lipopolysaccharide (LPS)-induced acute kidney disease models (Example 3); format: in vivo; conditions: FIG. 10
Method: After arrival and subsequent 7-day acclimation, the animals were randomly grouped. Except the animals in the control group, all other animals needed to be modeled by intraperitoneal injection with LPS. From day −2 to day 0, the mice in each group were administered by gavage, BID. On the day of modeling (day 0), the animals were intraperitoneally injected with LPS (12 mpk) post administration in the morning. Blood samples were collected after 24 h, and creatinine and urea nitrogen levels were measured.
(§1) The effects of the compounds on the kidney were then evaluated.

[2] = system: ischemia-reperfusion mouse models; assay: Ischemia-reperfusion models in mice (Examples 1 and 2); format: in vivo
Method: After arrival and subsequent 7-day acclimation, the animals were randomly grouped. Except the animals in the control group, all other animals needed to be modeled. On day −1, the mice in each group were administered by gavage twice a day (BID). On the day of surgery (day 0), the mice underwent surgery post administration in the morning. On day 1, the dosing was continued, and on day 2, the endpoint treatment was performed. The mice were subjected to blood collection 24 hours and 48 hours post surgery, and for the endpoint treatment, their kidneys were taken and fixed in a formaldehyde solution for subsequent HE pathological detection.
The specific steps of the ischemia-reperfusion surgery were as follows: the mice were anesthetized with 4% chloral hydrate (10 ml/kg, ip) and secured in a prone position. An incision was made on the back and the right kidney was isolated while ensuring that the adrenal gland and ureter were not injured. The renal artery and renal vein were ligated and the right kidney was excised. The left kidney was isolated, and the renal arterial and venous tracts were carefully separated and clipped for 30 min using a mini bulldog clamp, and then the clamp was loosened. The skin was sutured layer by layer with a needle and thread, and the mice were returned to their cages for recovery.
as §1

[3] = system: cisplatin-induced acute kidney injury mouse models; assay: Cisplatin-induced acute kidney disease models (Example 4); format: in vivo; conditions: for mortality rate of the mice: day 7 post modeling, same dosage (2.5 mg/kg oral BID per the 4th table), n=10
Method: After arrival and subsequent 7-day acclimation, the animals were randomly grouped. Except the animals in the control group, all other animals needed to be modeled by intraperitoneal injection with cisplatin. From day −3 to day 0, the mice in each group were administered BID. On the day of modeling (day 0), the animals were intraperitoneally injected with cisplatin (15 mg/kg) post administration in the morning. The dosing was continued until day 7. After the modeling, serum and urine samples were collected from the animals on day 4 and day 7, respectively, to measure the blood creatinine, urea nitrogen, and urinary albumin/creatinine (UACR) levels.
as §1

Janus kinase subtype 1 = Janus kinase subtype 1 (Homo sapiens, UniProt P23458); conditions: background statement, no data; cited from earlier work
Janus kinase subtype 1, sequence (P23458 whole entry): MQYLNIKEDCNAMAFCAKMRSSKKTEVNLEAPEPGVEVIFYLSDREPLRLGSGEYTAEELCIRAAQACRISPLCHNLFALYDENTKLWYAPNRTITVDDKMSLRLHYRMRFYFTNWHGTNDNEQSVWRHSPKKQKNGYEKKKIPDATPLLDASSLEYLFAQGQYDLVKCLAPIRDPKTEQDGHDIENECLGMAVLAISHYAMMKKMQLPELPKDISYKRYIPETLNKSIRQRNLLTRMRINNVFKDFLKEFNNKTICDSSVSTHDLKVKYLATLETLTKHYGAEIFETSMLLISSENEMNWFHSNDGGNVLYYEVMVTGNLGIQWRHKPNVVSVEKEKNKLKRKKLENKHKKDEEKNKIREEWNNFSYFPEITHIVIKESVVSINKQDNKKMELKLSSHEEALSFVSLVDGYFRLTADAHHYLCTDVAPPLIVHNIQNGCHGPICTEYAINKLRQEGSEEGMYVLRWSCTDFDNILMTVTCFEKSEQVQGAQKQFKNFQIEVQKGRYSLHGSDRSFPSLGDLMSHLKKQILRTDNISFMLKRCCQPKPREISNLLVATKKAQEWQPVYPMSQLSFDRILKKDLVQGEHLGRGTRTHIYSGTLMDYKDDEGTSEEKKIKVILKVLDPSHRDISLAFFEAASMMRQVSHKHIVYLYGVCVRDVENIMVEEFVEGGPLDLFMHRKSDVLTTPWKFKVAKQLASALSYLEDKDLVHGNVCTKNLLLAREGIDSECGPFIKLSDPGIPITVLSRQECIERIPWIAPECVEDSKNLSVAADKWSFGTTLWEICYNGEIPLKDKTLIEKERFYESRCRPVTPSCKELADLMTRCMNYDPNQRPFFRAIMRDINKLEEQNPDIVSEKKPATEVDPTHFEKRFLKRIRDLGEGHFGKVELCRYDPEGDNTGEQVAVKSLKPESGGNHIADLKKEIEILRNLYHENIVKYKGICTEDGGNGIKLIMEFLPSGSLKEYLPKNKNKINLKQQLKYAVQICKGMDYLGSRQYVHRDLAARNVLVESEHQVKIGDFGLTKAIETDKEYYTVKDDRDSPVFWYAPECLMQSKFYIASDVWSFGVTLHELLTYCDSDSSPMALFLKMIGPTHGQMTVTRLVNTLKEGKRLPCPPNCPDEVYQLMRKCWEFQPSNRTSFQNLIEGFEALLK

SMILES | kidney protective functions, 5 mpk and 10 mpk compared with 2.5 mpk group ([1]; 5 mpk and 10 mpk oral BID) | blood creatinine and urea nitrogen levels induced by LPS ([1]; different dosage groups (2.5, 5, 10 mg/kg oral BID), 24 h after LPS 12 mpk ip) | kidney/body weight ratio (renal compensatory hypertrophy) ([2]; Example 1, 10 mg/kg oral BID, 48 hours post modeling, FIG. 6) | improvement of kidney/body weight ratio compared with compound B ([2]; Example 1, 10 mg/kg oral BID, FIG. 6) | body weight reduction caused by ischemia-reperfusion ([2]; Example 1, 10 mg/kg oral BID, compared with compound B at the same dosage, FIG. 5) | kidney HE pathological scores ([2]; Example 1, 10 mg/kg oral BID, scores 0-3, FIG. 9) | blood creatinine and urea nitrogen, difference from the model group ([2]; Example 2, 5 mpk and 10 mpk oral BID, FIG. 8) | renal hypertrophy, difference from the model group ([2]; Example 2, 5 mpk oral BID, FIG. 7) | renal hypertrophy caused by ischemia-reperfusion (kidney/body weight ratio) ([2]; Example 2, all dosage groups 2.5 mpk, 5 mpk and 10 mpk oral BID, FIG. 7) | blood creatinine and urea nitrogen levels ([2]; Example 2, all dosage groups 2.5 mpk, 5 mpk and 10 mpk oral BID, FIG. 8) | blood creatinine and urea nitrogen, protective effect compared with compound B ([2]; Example 2, same dosage (5 mg/kg oral BID), FIG. 8) | overall kidney protective effect compared with compound B ([2]; Examples 1 and 2) | overall kidney protective effect (mortality, renal hypertrophy, kidney pathology, blood biochemical parameters) ([2]; Examples 1 and 2, compared with the model group) | blood creatinine and urinary albumin levels induced by cisplatin ([3]; 1.25, 2.5, 5 mg/kg oral BID, cisplatin 15 mg/kg ip, FIG. 11) | blood creatinine, blood urea nitrogen, urinary albumin/creatinine ratio, significance ([3]; 2.5 mpk and 5 mpk oral BID, FIG. 11) | kidney protective functions compared with compound B ([3]; cisplatin models, FIG. 11) | mortality rate of the mice [3] [%] | mortality of the mice ([3]; different dosages (1.25, 2.5, 5 mg/kg oral BID), model group 100% dead on day 6) | inhibitory activity against Janus kinase subtype 1 relative to subtype 2 or subtype 3 (selectivity) (Janus kinase subtype 1)
COc1nsc(NC(=O)N2C[C@H]3C[C@H](N(C)c4ncnc5[nH]ccc45)C[C@H]3C2)n1 [Compound A, (3 aR,5 s,6aS)—N-(3-methoxy-1,2,4-thiadiazol-5-yl)-5-(methyl(7H-pyrrolo[2,3-d]pyrimidin-4-yl)amino)hexahydrocyclopenta[c]pyrrole-2(1H)-carb oxamide] | Stronger kidney protective functions | significantly alleviated the increase in blood creatinine and urea nitrogen levels | decreased kidney/body weight ratios | had some advantages in improving the kidney/body weight ratios | smaller decrease in body weight | significantly improved the kidney HE pathological scores | showed significant differences compared with the model group | significant difference | could reduce the renal hypertrophy | alleviated the increase in blood creatinine and urea nitrogen levels | stronger protective effect compared with compound B | more excellent kidney protective effect | exhibited kidney protective effects | dose-dependently alleviated the increase in blood creatinine and urinary albumin levels | showed significant differences | exhibited stronger kidney protective functions | 40 | significantly decreased the mortality | stronger inhibitory activity against Janus kinase subtype 1 relative to Janus kinase subtype 2 or Janus kinase subtype 3
CCS(=O)(=O)N1CC(CC#N)(n2cc(-c3ncnc4[nH]ccc34)cn2)C1 [Compound B, Baricitinib, reference compound] | – | – | – | – | – | – | – | – | – | – | – | – | – | – | – | – | 80 | – | –
